Tested on: Alzheimer's disease
Assay: Case-control study of sibships at high risk: odds ratios for age-adjusted risk of Alzheimer's disease with prior drug exposure (Cox proportional hazards models)
Format: in vivo, human
Conditions: for effect on risk of Alzheimer's disease in words: drug alone, orthogonal comparison with NSAIDs; for Odds ratio for risk of Alzheimer's disease: COL + AU, simple odds ratio
Procedure: Briefly, doubly affected sib pairs with Alzheimer's disease onset ages that differed by at least 3 years were studied, as were disease-discordant siblings whose unaffected sib(s) had survived at least 3 years beyond the onset age of the affected sib. Premorbid exposures to steroids, NSAIDs and other treatments were assessed for 186 subjects (91% response rate) by focused retrospective interviews using appropriate blinding and multiple informants when possible. Survival analysis methods were used to compare age-adjusted risk of Alzheimer's disease among sibs who had been exposed or unexposed, before onset, to glucocorticoids, aspirin, non-aspirin NSAIDs, and histamine H2 receptor blockers. […] The odds ratios for steroids, aspirin and non-aspirin NSAIDs fell within the related confidence interval from the prior twin study (Breitner, Neurology 44:227 (1994)).
Doubly affected sib pairs with Alzheimer's disease onset ages that differed by at least 3 years were studied, as were disease-discordant siblings whose unaffected sib(s) had survived at least 3 years beyond the onset age of the affected sib. Diagnoses and ages at onset of Alzheimer's disease were established by consideration of all relevant data, including extensive longitudinal observation, laboratory testing, and autopsy confirmation when available. Arthritis, peptic ulcer disease, and other non-neurological conditions were not considered when making these diagnoses. Subjects or their collateral informants received a letter, followed by a structured telephone interview, that investigated several common medical conditions (arthritis, diabetes, peptic ulcer disease) and treatments (glucocorticoids, nonsteroidal anti-inflammatories, including aspirin, acetaminophen, narcotic analgesics, insulin and oral hypoglycemic drugs, and histamine H2 blocking agents). The interview also sought timing and duration of exposure. The interviewers generally knew which subjects had Alzheimer's disease but were blinded to early- or late-affected status. The respondents were not made aware of the hypothesis under investigation. Collateral informants supplied data for the 107 subjects who had developed Alzheimer's disease. Collateral information was also sought for the remaining subjects; however, it is was necessary to rely on autobiographical data from 20 (26%).
Like dizygous twins, siblings share 50% of their genetic make-up on average. The relation of Alzheimer's disease onset and prior use of anti-inflammatory drugs was therefore studied in a sample of 186 sibs from 45 pedigrees ascertained for genetic linkage studies of late onset Alzheimer's disease (Pericak-Vance et al, Am. J. Hum. Genet. 48:1034 (1991)). The selected sibs were members of onset-discordant doubly affected pairs or disease-discordant pairs meeting criteria described above.
These differences and the association of Alzheimer's disease with the remaining exposures were investigated using Cox proportional hazards models (Cox, J. Roy. Stat. Soc. (Series B) 34:248-275 (1972)) in which the sample was first stratified by sibship. Table 2 reports odds ratios (o.r), the customary measure of risk associated with an exposure in case-control work. The o.r. is ordinarily calculated as the ratio of proportions exposed versus unexposed in the affected and unaffected groups; for conditions like Alzheimer's disease with age-dependent expression (Breitner et al, Am. J. Epidemiol. 128:536-548 (1988)), the o.r. is preferably calculated using proportional hazards or similar models which consider subjects' current age or age at death (i.e., censoring age), or age at onset of Alzheimer's disease. An o.r. of less than 1 implies reduced risk of disease with exposure. […] The apparent effect of both aspirin and NSAIDs increased with duration of exposure; the o.r. with use of NSAIDs for >1 yr. […]

[1] = Table 2, source of data COL + AU (collateral + autobiographical), stratified by sibship
[2] = Table 2, source of data COL only (collateral informants), stratified by sibship, exposure >=1 month
[3] = Table 3, orthogonal comparison, not stratified by sibship, no NSAIDs

| SMILES | Odds ratio for age-adjusted risk of Alzheimer's disease [1] | Odds ratio for age-adjusted risk of Alzheimer's disease [2] | Odds ratio for age-adjusted risk of Alzheimer's disease [3] | effect on risk of Alzheimer's disease in words | Odds ratio for risk of Alzheimer's disease (Table 2, exposed 1-12 mo.) | Odds ratio for risk of Alzheimer's disease (Table 2, exposed >1 yr.) | estimated odds ratios (o.r.), age-adjusted risk of Alzheimer's disease (sibs exposed or unexposed before onset) |
| --- | --- | --- | --- | --- | --- | --- | --- |
| CC(=O)Nc1ccc(O)cc1 [Acetaminophen] | 0.104 | 0.157 | 0.192 | comparable but statistically inconclusive effect |  |  |  |
| CC(=O)Oc1ccccc1C(=O)O [Aspirin] | 0.343 | 0.349 | 0.508 | weak but similar effect to NSAIDs | 0.625 | 0.369 | 0.35 |

Reference: patent publication US6867236B1, “Method of preventing of delaying the onset and progression of Alzheimer's disease and related disorders” (Duke University, priority 1994, dated 2005)
